According to paper PMC3510196, “Cloning and Characterization of a P2X Receptor Expressed in the Central Nervous System of Lymnaea stagnalis” (PLoS ONE, 2012):
pEC50, pIC50: −log10 of the molar value.

What was measured:
Assay in all cases: two-electrode voltage clamp, Xenopus oocytes
Assay type in all cases: cell-based
[1] = biological target: T1, LymP2X (Lymnaea stagnalis, UniProt K7QP77); conditions: weak agonist; pH 7.5, 1.8 mM Ba2+ in place of Ca2+, -60 mV
T1 construct: full-length, 435 residues, shorter clone starting at second in-frame ATG; cRNA injected in Xenopus oocytes; homotrimer expected (P2X family); differs from contig FX193730 in 50 residues of the cysteine-rich head (possible alternative exon)
T1 sequence (K7QP77 1-435): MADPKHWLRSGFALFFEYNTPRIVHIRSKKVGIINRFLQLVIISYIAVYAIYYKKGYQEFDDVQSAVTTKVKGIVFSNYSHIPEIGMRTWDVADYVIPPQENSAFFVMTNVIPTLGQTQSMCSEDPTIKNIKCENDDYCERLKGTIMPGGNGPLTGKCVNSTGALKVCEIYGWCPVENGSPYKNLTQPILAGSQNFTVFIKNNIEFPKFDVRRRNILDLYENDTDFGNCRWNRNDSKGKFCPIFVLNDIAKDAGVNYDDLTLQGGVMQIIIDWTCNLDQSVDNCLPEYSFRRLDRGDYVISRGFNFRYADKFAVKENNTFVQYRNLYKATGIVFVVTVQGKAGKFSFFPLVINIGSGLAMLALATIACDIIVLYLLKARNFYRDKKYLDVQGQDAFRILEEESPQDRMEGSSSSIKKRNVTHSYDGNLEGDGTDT

[2] = biological target: T1, LymP2X
[3] = biological target: T2, LymP2X clone 11 (Lymnaea stagnalis, UniProt K7QP77, INS0MTTK)
T2 construct: full-length plus N-terminal MTTK (upstream in-frame ATG at nucleotide 3) added to LymP2X (GenBank JX524180); Xenopus oocytes
T2 sequence (K7QP77 1-435 INS0MTTK): T1 sequence (K7QP77 1-435)

[4] = biological target: T1, LymP2X; remark: listed apart in the source

| SMILES | pEC50 [2] | pIC50 [4] | also measured |
| --- | --- | --- | --- |
| Nc1ncnc2c1ncn2[C@@H]1O[C@H](COP(=O)(O)CP(=O)(O)OP(=O)(O)O)[C@@H](O)[C@H]1O [αβmeATP] |  |  | % of 10 μM ATP response at 100 μM [1]: 36.9±10.6% |
| Nc1ncnc2c1ncn2[C@@H]1O[C@H](COP(=O)(O)OP(=O)(O)OP(=O)(O)O)[C@@H](OC(=O)c2ccc(C(=O)c3ccccc3)cc2)[C@H]1O [BzATP] | 5.62 |  |  |
| Nc1ncnc2c1ncn2[C@@H]1O[C@H](COP(=O)(O)OP(=O)(O)OP(=O)(O)O)[C@@H](O)[C@H]1O [ATP] | 5.21 |  | pEC50 [3]: 5.24 |
| Cc1ccc(C(=O)Nc2ccc(S(=O)(=O)O)c3cc(S(=O)(=O)O)cc(S(=O)(=O)O)c23)cc1NC(=O)c1cccc(NC(=O)Nc2cccc(C(=O)Nc3cc(C(=O)Nc4ccc(S(=O)(=O)O)c5cc(S(=O)(=O)O)cc(S(=O)(=O)O)c45)ccc3C)c2)c1 [suramin] |  | 4.56 |  |
| Cc1nc(N=Nc2ccc(S(=O)(=O)O)cc2S(=O)(=O)O)c(COP(=O)(O)O)c(C=O)c1O [PPADS] |  | 5.09 |  |
